In experiment [1] the target is T1, hVR1 (Homo sapiens, UniProt Q8NER1).
T1 construct: expressed in transfected cells; host or cells: CHO K1 cells (ECACC), stably transfected
Briefly: Functional test on human VR1, NADA (N-arachidonoyl dopamine) stimulus. It counts as cell-based, human being. On the set-up: key to Ki (human being) NADA: agonist / partial agonist / no effect: AG=agonist; pAG=partial agonist; NE=no effect. The note with it: for Ki: includes values given in brackets after pAG, read-out: Ki (human being) [nM] NADA. The source says:
II. Functional Tests Carried Out on the Vanilloid Receptor (VR1)
The agonistic or antagonistic effect of the substances to be tested on the vanilloid receptor 1 (VR1) can also be determined using the following assay. In this assay, the influx of Ca^2+ through the channel is quantified with the aid of a Ca^2+-sensitive dye (type Fluo-4, Molecular Probes Europe BV, Leiden, the Netherlands) in a fluorescent imaging plate reader (FLIPR, Molecular Devices, Sunnyvale, USA).
Chinese hamster ovary cells (CHO K1 cells, European Collection of Cell Cultures (ECACC) United Kingdom) are stably transfected with the VR1 gene. For functional testing, these cells are plated out on poly-D-lysine-coated black 96-well plates having a clear base (BD Biosciences, Heidelberg, Germany) at a density of 25,000 cells/well. The cells are incubated overnight at 37° C. and 5% CO2 in a culture medium (Ham's F12 nutrient mixture, 10% by volume of FCS (foetal calf serum), 18 μg/ml of L-proline). The next day the cells are incubated with Fluo-4 (Fluo-4 2 μM, 0.01% by volume of Pluronic F127, Molecular Probes in HBSS (Hank's buffered saline solution), Gibco Invitrogen GmbH, Karlsruhe, Germany) for 30 minutes at 37° C. Subsequently, the plates are washed three times with HBSS buffer and after further incubation for 15 minutes at RT used for Ca^2+ measurement in a FLIPR assay. The Ca^2+-dependent fluorescence is measured before and after the addition of the substances to be tested (λex wavelength=488 nm, λem=540 nm). Quantification is carried out by measuring the highest fluorescence intensity (FC, fluorescence counts) over time.
The FLIPR protocol consists of 2 substance additions. First the compounds to be tested (10 μM) are pipetted onto the cells and the Ca^2+ influx is compared with the control (capsaicin 10 μM) (% activation based on the Ca^2+ signal after the addition of 10 μM of capsaicin). […]
Desensitising agonists and antagonists led to suppression of the Ca^2+ influx. The % inhibition is calculated compared to the maximum achievable inhibition with 10 μM of capsaicin.
Starting from the percentage displacement caused by different concentrations of the compounds to be tested of general formula I, IC50 inhibitory concentrations which cause a 50-per cent displacement of capsaicin were calculated. Ki values for the test substances were obtained by conversion by means of the Cheng-Prusoff equation (Cheng, Prusoff; Biochem. Pharmacol. 22, 3099-3108, 1973).
NADA=N-arachidonoyl dopamine

Experiment [2] concerns the target T1, hVR1. In words: Functional test on VR1, FLIPR Ca2+ influx in transfected CHO K1 cells, capsaicin. On the set-up: key to Ki (human being) [nM] Cap: agonist / partial agonist / no effect: AG=agonist; pAG=partial agonist; NE=no effect. It counts as cell-based, human being. Conditions: for Ki: includes values given in brackets after pAG, read-out: Ki (human being) [nM] Cap.

The target of experiment [3] is T1, hVR1. Briefly: Functional test on human VR1, 45° C. stimulus. The arrangement: key to IC50 (human being), 45° C.: agonist / partial agonist / no effect: AG=agonist; pAG=partial agonist; NE=no effect. Type of experiment: cell-based, human being.
Experiment [4] has as its target T1, hVR1. Briefly: Functional test on hVR1 after pH stimulus. It counts as cell-based, human being. On the set-up: key to IC50 (human being) hVR1, pH: agonist / partial agonist / no effect: AG=agonist; pAG=partial agonist; NE=no effect. The note with it: for inhibition at 10 µM: read-out: IC50 (human being) hVR1, pH: inhibition (as a percentage); for IC50: includes value printed in brackets after pAG, read-out: IC50 (human being) hVR1 [nM], pH.

Experiment [5] deals with T2, rat-species vanilloid receptor 1 (VR1/TRPV1) (Rattus norvegicus, UniProt O35433).
T2 construct: endogenous in cells; host or cells: primary cells dissociated from rat dorsal root ganglia (DRG), cultured 2-3 days with NGF
In words: Functional testing on the vanilloid receptor 1, FLIPR Ca2+ influx in rat DRG cells, capsaicin. Conditions: for Ki: capsaicin (Cap), includes values given in brackets after pAG. It counts as cell-based. On the set-up: key to Ki (rat) [nM] Cap: agonist / partial agonist / no effect: AG=agonist; pAG=partial agonist; NE=no effect. The source says:
I. Functional Testing Carried Out on the Vanilloid Receptor 1 (VRI/TRPV1 Receptor)
The agonistic or antagonistic effect of the substances to be tested on the rat-species vanilloid receptor 1 (VR1/TRPV1) can be determined using the following assay. In this assay, the influx of Ca^2+ through the receptor channel is quantified with the aid of a Ca^2+-sensitive dye (type Fluo-4, Molecular Probes Europe BV, Leiden, the Netherlands) in a fluorescent imaging plate reader (FLIPR, Molecular Devices, Sunnyvale, USA).
Complete medium: 50 ml HAMS F12 nutrient mixture (Gibco Invitrogen GmbH, Karlsruhe, Germany) with
10% by volume of FCS (foetal calf serum, Gibco Invitrogen GmbH, Karlsruhe, Germany, heat-inactivated);
2 mM L-glutamine (Sigma, Munich, Germany);
1% by weight of AA solution (antibiotic/antimyotic solution, PAA, Pasching, Austria) and 25 ng/ml NGF medium (2.5 S, Gibco Invitrogen GmbH, Karlsruhe, Germany)
Cell culture plate: Poly-D-lysine-coated, black 96-well plates having a clear base (96-well black/clear plate, BD Biosciences, Heidelberg, Germany) are additionally coated with laminin (Gibco Invitrogen GmbH, Karlsruhe, Germany), the laminin being diluted with PBS (Ca—Mg-free PBS, Gibco Invitrogen GmbH, Karlsruhe, Germany) to a concentration of 100 μg/ml. Aliquots having a laminin concentration of 100 μg/ml are removed and stored at −20° C. The aliquots are diluted with PBS in a ratio of 1:10 to 10 μg/ml of laminin and respectively 50 μL of the solution are pipetted into a recess in the cell culture plate. The cell culture plates are incubated for at least two hours at 37° C., the excess solution is removed by suction and the recesses are each washed twice with PBS. The coated cell culture plates are stored with excess PBS which is not removed until just before the feeding of the cells.
Preparation of the Cells:
The vertebral column is removed from decapitated rats and placed immediately into cold HBSS buffer (Hank's buffered saline solution, Gibco Invitrogen GmbH, Karlsruhe, Germany), i.e. buffer located in an ice bath, mixed with 1% by volume (per cent by volume) of an AA solution (antibiotic/antimyotic solution, PAA, Pasching, Austria). The vertebral column is cut longitudinally and removed together with fasciae from the vertebral canal. Subsequently, the dorsal root ganglia (DRG) are removed and again stored in cold HBSS buffer mixed with 1% by volume of an AA solution. The DRG, from which all blood remnants and spinal nerves have been removed, are transferred in each case to 500 μL of cold type 2 collagenase (PAA, Pasching, Austria) and incubated for 35 minutes at 37° C. After the addition of 2.5% by volume of trypsin (PAA, Pasching, Austria), incubation is continued for 10 minutes at 37° C. After complete incubation, the enzyme solution is carefully pipetted off and 500 μL of complete medium are added to each of the remaining DRG. The DRG are respectively suspended several times, drawn through cannulae No. 1, No. 12 and No. 16 using a syringe and transferred to a 50 ml Falcon tube which is filled up to 15 ml with complete medium. The contents of each Falcon tube are respectively filtered through a 70 μm Falcon filter element and centrifuged for 10 minutes at 1,200 rpm and RT. The resulting pellet is respectively taken up in 250 μL of complete medium and the cell count is determined.
The number of cells in the suspension is set to 3×10^5 per ml and 150 μL of this suspension are in each case introduced into a recess in the cell culture plates coated as described hereinbefore. In the incubator the plates are left for two to three days at 37° C., 5% by volume of CO2 and 95% relative humidity. […]

T2 sequence (O35433 whole entry): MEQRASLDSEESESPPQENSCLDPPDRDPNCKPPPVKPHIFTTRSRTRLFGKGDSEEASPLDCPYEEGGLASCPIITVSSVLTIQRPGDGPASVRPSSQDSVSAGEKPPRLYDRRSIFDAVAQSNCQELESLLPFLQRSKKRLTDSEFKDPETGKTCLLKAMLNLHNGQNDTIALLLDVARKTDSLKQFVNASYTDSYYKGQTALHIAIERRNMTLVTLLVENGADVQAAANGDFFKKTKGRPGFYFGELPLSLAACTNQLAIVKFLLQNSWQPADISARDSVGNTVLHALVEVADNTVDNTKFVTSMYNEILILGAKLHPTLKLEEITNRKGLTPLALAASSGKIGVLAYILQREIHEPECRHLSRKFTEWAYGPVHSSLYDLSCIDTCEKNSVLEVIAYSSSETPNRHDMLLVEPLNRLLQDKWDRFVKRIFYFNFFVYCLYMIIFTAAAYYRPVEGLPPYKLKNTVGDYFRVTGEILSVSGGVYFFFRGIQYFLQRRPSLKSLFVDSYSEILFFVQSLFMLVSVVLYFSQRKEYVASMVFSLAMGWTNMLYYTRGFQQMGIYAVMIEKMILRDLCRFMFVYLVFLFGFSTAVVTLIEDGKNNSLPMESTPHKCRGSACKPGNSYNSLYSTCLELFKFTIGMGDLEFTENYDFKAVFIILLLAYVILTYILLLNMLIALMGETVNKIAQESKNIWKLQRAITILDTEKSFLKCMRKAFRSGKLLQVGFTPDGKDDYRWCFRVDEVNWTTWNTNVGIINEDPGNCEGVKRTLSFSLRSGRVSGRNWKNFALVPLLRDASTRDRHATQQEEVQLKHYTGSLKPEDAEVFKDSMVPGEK
T1 sequence (Q8NER1 whole entry): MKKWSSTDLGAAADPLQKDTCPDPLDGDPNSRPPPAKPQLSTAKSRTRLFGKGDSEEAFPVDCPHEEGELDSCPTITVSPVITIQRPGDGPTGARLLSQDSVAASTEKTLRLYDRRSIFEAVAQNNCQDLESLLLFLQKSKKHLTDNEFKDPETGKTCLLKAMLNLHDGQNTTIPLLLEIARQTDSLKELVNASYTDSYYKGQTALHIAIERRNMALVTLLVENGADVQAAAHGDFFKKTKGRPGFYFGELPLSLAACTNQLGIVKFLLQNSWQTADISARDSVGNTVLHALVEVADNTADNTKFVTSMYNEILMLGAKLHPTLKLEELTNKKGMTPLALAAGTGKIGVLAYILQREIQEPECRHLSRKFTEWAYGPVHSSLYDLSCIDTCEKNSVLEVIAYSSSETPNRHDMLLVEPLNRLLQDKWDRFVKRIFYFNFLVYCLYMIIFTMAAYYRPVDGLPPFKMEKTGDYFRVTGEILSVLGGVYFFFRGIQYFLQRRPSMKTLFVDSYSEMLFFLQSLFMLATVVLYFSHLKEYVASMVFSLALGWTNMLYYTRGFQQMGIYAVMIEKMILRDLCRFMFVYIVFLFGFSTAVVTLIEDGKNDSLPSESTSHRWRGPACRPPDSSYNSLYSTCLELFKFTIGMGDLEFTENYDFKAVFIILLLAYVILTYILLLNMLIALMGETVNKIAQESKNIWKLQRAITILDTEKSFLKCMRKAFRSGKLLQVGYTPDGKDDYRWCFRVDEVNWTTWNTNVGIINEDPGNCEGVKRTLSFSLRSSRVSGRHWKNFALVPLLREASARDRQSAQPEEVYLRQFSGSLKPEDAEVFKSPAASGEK

With `CC(C)(C)c1cc(CNC(=O)Nc2cccc3ncccc23)n(-c2cccc(Cl)c2)n1` [Example 111, 1-((3-tert-butyl-1-(3-chlorophenyl)-1H-pyrazol-5-yl)methyl)-3-(quinolin-5-yl)urea], on hVR1 [1], the “Ki (human being) NADA: agonist / partial agonist / no effect” value is on record as “AG”. Further, the “Ki (human being) [nM] Cap: agonist / partial agonist / no effect” value on hVR1 [2] was “AG”. For the same compound, the “IC50 (human being), 45° C.: agonist / partial agonist / no effect” value at hVR1 [3] is on record as “AG”. Also, on hVR1 [4], the “IC50 (human being) hVR1, pH: agonist / partial agonist / no effect” value is “AG”.

Regarding `CC(C)(C)c1cc(CNC(=O)Cc2ccc3c(c2)OCCO3)n(-c2ccc(Cl)cc2)n1` [Example 12, N-((3-tert-butyl-1-(4-chlorophenyl)-1H-pyrazol-5-yl)methyl)-2-(2,3-dihydrobenzo[b][1,4]dioxin-6-yl)acetamide], the inhibition at 2 µM was found to be 58% at hVR1 [1] (@ 2 μM, read-out: Ki (human being) NADA column: inhibition (as a percentage)) and 18% at hVR1 [3] (@ 2 μM, read-out: IC50 (human being), 45° C.: inhibition (as a percentage)). Moreover, the Ki at hVR1 [2] (capsaicin (Cap)) amounted to 77.9 nM; in experiment [5] it was 135 nM.

In the case of `CC(C(=O)NCc1cc(C(C)(C)C)nn1-c1cccc(Cl)c1)c1cccc2cnccc12` (stereo not drawn) [Example 63, N-((3-tert-butyl-1-(3-chlorophenyl)-1H-pyrazol-5-yl)methyl)-2-(isoquinolin-5-yl)propanamide], the inhibition constant Ki at hVR1 [2] (capsaicin (Cap)) was 0.2 nM. At hVR1 [3] (@ 0.6 μM, read-out: IC50 (human being), 45° C.: inhibition (as a percentage)), the inhibition at 0.6 µM stood at 9%. Moreover, in experiment [5], the “Ki (rat) [nM] Cap: agonist / partial agonist / no effect” value is reported as “pAG” and affinity was put at a Ki of 0.5 nM. Besides, the inhibition at 10 µM at hVR1 [4] came out at 33%.

As for `CC(C(=O)NCc1cc(C(C)(C)C)nn1-c1cccc(Cl)c1)c1ccc2c(c1)OCCCO2` (stereo not drawn) [Example 15, N-((3-tert-butyl-1-(3-chlorophenyl)-1H-pyrazol-5-yl)methyl)-2-(3,4-dihydro-2H-benzo[b][1,4]dioxepin-7-yl)propanamide], at hVR1 [2], the “Ki (human being) [nM] Cap: agonist / partial agonist / no effect” value is recorded as “pAG”. In addition, on hVR1 [2] (capsaicin (Cap)), the Ki is 25 nM. Moreover, the “IC50 (human being), 45° C.: agonist / partial agonist / no effect” value on hVR1 [3] is “pAG”. In addition, in experiment [5], the “Ki (rat) [nM] Cap: agonist / partial agonist / no effect” value is given as “AG”. At hVR1 [4], the “IC50 (human being) hVR1, pH: agonist / partial agonist / no effect” value is “pAG” and the IC50 was 412 nM.

Regarding `CC(C)(C)c1cc(CNC(=O)Nc2cncc3ccccc23)n(-c2cccc(Cl)c2)n1` [Example 112, 1-((3-tert-butyl-1-(3-chlorophenyl)-1H-pyrazol-5-yl)methyl)-3-(isoquinolin-4-yl)urea], the “Ki (human being) NADA: agonist / partial agonist / no effect” value at hVR1 [1] is reported as “pAG”. The values for the Ki (on hVR1 [1]; at hVR1 [2] (capsaicin (Cap)); in experiment [5]) were 6.4 nM, 7.3 nM and 18.2 nM, respectively.

Turning to `CC(C)(C)c1cc(CNC(=O)Nc2cnc3ccccc3c2)n(-c2cccc(Cl)c2)n1` [Example 113, 1-((3-tert-butyl-1-(3-chlorophenyl)-1H-pyrazol-5-yl)methyl)-3-(quinolin-3-yl)urea], the figures for the Ki at hVR1 [1] and on hVR1 [2] (capsaicin (Cap)) were 33.3 nM and 70.7 nM, respectively.

As for `CC(C(=O)NCc1cc(C(C)(C)C)nn1-c1cccc(Cl)c1)c1ccc2cccnc2c1` (stereo not drawn) [Example 71, N-((3-tert-butyl-1-(3-chlorophenyl)-1H-pyrazol-5-yl)methyl)-2-(quinolin-7-yl)propanamide], on hVR1 [1], the Ki was 68.1 nM. The inhibition at 10 µM at hVR1 [2] (CHO-K1, @ 10 μM, capsaicin (Cap), read-out: Ki (human being) Cap column: inhibition (as a percentage)) worked out at 18%. Further, on hVR1 [3] (read-out: IC50 (human being) [nM], 45° C.), the IC50 worked out at 2710 nM.

As to `CC(C(=O)NCc1cc(C(C)(C)C)nn1-c1cccc(Cl)c1)c1ccc2ocnc2c1` (stereo not drawn) [Example 40, 2-(benzo[d]oxazol-5-yl)-N-((3-tert-butyl-1-(3-chlorophenyl)-1H-pyrazol-5-yl)methyl)propanamide], the values for the inhibitory constant (Ki) (at hVR1 [1]; at hVR1 [2] (capsaicin (Cap)); in experiment [5]) were 1.1 nM, 4.2 nM and 8.4 nM, respectively.

Regarding `CC(C(=O)NCc1cc(C(F)(F)F)nn1-c1cccc(Cl)c1)c1cccc2ccc(O)cc12` (stereo not drawn) [Example 58, N-((1-(3-chlorophenyl)-3-(trifluoromethyl)-1H-pyrazol-5-yl)methyl)-2-(7-hydroxynaphthalen-1-yl)propanamide], the Ki turned out to be 0.7 nM at hVR1 [2] (capsaicin (Cap)) and 7.6 nM in experiment [5]. The inhibition at 2.5 µM at hVR1 [3] (@ 2.5 μM, read-out: IC50 (human being), 45° C.: inhibition (as a percentage)) amounted to 41%. Further, on hVR1 [4], the IC50 was 4930 nM.

For the compound `CC(C(=O)NCc1cc(C(C)(C)C)nn1-c1cccc(Cl)c1)c1ccc2nccnc2c1` (stereo not drawn) [Example 77, N-((3-tert-butyl-1-(3-chlorophenyl)-1H-pyrazol-5-yl)methyl)-2-(quinoxalin-6-yl)propanamide], the values for the Ki (on hVR1 [2] (capsaicin (Cap)); in experiment [5]) were 35.4 nM and 34.2 nM, respectively. The inhibition at 10 µM on hVR1 [3] (@ 10 μM, read-out: IC50 (human being), 45° C.: inhibition (as a percentage)) was -17%; on hVR1 [4], 23%.

As usually defined, the inhibition is the change of the read-out against control, counted positive when it falls. What is called Ki is a dissociation constant, usually derived from enzyme kinetics or from competition with a known ligand. As a reminder, the IC50 is the concentration that inhibits the measured activity by half.

The values are drawn from patent US8334315B2, “Substituted aromatic carboxamide and urea derivatives as vanilloid receptor ligands” (Gruenenthal GmbH, priority 2009, dated 2012).
